According to US11852970B2, “Material for lithography, production method therefor, composition for lithography, pattern formation method, compound, resin, and method for purifying the compound or the resin” (Mitsubishi Gas Chemical Company, Inc., priority 2015, dated 2023):

Assay: Safe solvent solubility test of compound
Type: physicochemical
Conditions: amount of dissolution in propylene glycol monomethyl ether acetate at 23° C., ultrasonic 30 minutes, visual
Description: The solubility of the compound in propylene glycol monomethyl ether acetate was measured as the solubility of the compound in a safe solvent. The solubility was evaluated according to the following criteria utilizing the amount of dissolution in propylene glycol monomethyl ether acetate. The amount of dissolution was measured at 23° C. by precisely weighing the compound into a test tube, adding propylene glycol monomethyl ether acetate so as to attain a predetermined concentration, applying ultrasonic waves for 30 minutes in an ultrasonic cleaner, then visually observing the subsequent state of the fluid, and conducting evaluation on the basis of the concentration of the amount of complete dissolution. • A: 5.0% by mass≤Amount of dissolution • B: 3.0% by mass≤Amount of dissolution<5.0% by mass • C: Amount of dissolution<3.0% by mass (2) Storage Stability and Thin Film Formability of Resist Composition

SMILES | Safe solvent solubility test
Oc1ccc([Te]c2ccc(O)cc2)cc1 [TDP, 4,4′-telluriumdiphenol] | A (5.0% by mass≤Amount of dissolution)
Oc1ccc([Te](Cl)(Cl)c2ccc(O)cc2)cc1 [BHPT, bis(4-hydroxyphenyl)tellurium dichloride] | A (5.0% by mass≤Amount of dissolution)
CC(C)(C)OC(=O)Oc1ccc([Te](Cl)(Cl)c2ccc(OC(=O)OC(C)(C)C)cc2)cc1 [BHPT-BOC, bis(tert-butoxycarboxyphenyl)tellurium dichloride] | A (5.0% by mass≤Amount of dissolution)
Oc1ccc([Te](Cl)(Cl)c2ccc(O)c(-c3ccccc3)c2)cc1-c1ccccc1 [Ph-BHPT, bis(3-phenyl-4-hydroxyphenyl)tellurium dichloride] | A (5.0% by mass≤Amount of dissolution)
CC1(OC(=O)COc2ccc([Te]c3ccc(OCC(=O)OC4(C)C5CC6CC(C5)CC4C6)cc3)cc2)C2CC3CC(C2)CC1C3 (stereo not drawn) [TDP-ADBAC] | A (5.0% by mass≤Amount of dissolution)
CCOC(C)Oc1ccc([Te](Cl)(Cl)c2ccc(OC(C)OCC)cc2)cc1 (stereo not drawn) [BHPT-EE, bis(ethoxyethylphenyl)tellurium dichloride] | A (5.0% by mass≤Amount of dissolution)
Oc1ccc([Te]c2ccc(O)c(-c3ccccc3)c2)cc1-c1ccccc1 [Ph-TDP, bis(3-phenyl-4-hydroxyphenyl)tellurium] | A (5.0% by mass≤Amount of dissolution)
CC1(OC(=O)COc2ccc([Te](Cl)(Cl)c3ccc(OCC(=O)OC4(C)C5CC6CC(C5)CC4C6)cc3)cc2)C2CC3CC(C2)CC1C3 (stereo not drawn) [BHPT-ADBAC, bis(4-(2-methyl-2-adamantyloxycarbonylmethoxy)phenyl)tellurium dichloride] | A (5.0% by mass≤Amount of dissolution)
CC1(OC(=O)COc2ccc([Te]c3ccc(OCC(=O)OC4(C)C5CC6CC(C5)CC4C6)c(-c4ccccc4)c3)cc2-c2ccccc2)C2CC3CC(C2)CC1C3 (stereo not drawn) [Ph-TDP-ADBAC] | A (5.0% by mass≤Amount of dissolution)
CCOC(C)Oc1ccc([Te](Cl)(Cl)c2ccc(OC(C)OCC)c(-c3ccccc3)c2)cc1-c1ccccc1 (stereo not drawn) [Ph-TDP-EE] | A (5.0% by mass≤Amount of dissolution)
CC1(OC(=O)COc2ccc([Te](Cl)(Cl)c3ccc(OCC(=O)OC4(C)C5CC6CC(C5)CC4C6)c(-c4ccccc4)c3)cc2-c2ccccc2)C2CC3CC(C2)CC1C3 (stereo not drawn) [Ph-BHPT-ADBAC] | A (5.0% by mass≤Amount of dissolution)
CC(C)(C)OC(=O)COc1ccc([Te]c2ccc(OCC(=O)OC(C)(C)C)cc2)cc1 [Ph-TDP-BOC] | A (5.0% by mass≤Amount of dissolution)
